# Measured values from patent US8263656B2 (Hoffmann-La Roche Inc., priority 2008, dated 2012).
# Target: T1, human CRTH2 (Homo sapiens, UniProt Q9Y5Y4)
# T1 construct: expressed in transfected cells
# T1 sequence (Q9Y5Y4 1-395): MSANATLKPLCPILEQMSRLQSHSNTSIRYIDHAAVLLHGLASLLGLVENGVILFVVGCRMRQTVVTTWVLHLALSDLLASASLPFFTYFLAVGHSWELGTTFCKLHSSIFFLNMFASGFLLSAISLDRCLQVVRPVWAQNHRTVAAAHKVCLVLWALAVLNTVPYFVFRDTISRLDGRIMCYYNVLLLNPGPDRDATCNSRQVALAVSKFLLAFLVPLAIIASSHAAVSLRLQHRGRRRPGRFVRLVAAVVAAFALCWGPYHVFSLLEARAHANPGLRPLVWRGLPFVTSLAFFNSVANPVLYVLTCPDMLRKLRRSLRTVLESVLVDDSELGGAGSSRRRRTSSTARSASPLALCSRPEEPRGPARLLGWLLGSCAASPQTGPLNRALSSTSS
# Test: Human CRTH2 Receptor Binding Assay (whole cell, [3H]ramatroban competition)
# Conditions: CHO-K1 cells expressing human CRTH2 and G-alpha16; 20 nM [3H]ramatroban; 1 hour, room temperature
# Excerpt: A whole cell receptor binding assay using [^3H]ramatroban as the competing radioactive ligand was employed to evaluate the compound binding activity to human CRTH2. The radioactive ligand [^3H]ramatroban was synthesized according to Sugimoto et. al. (Eur. J. Pharmacol. 524, 30-37, 2005) to a specific activity of 42 Ci/mmol.
# A cell line stably expressing human CRTH2 was established by transfecting CHO-K1 cells with two mammalian expression vectors that harbored human CRTH2 and G-alpha16 cDNAs, respectively, using FuGene® 6 transfection reagent (from Roche). Stable clones expressing CRTH2 were selected by staining each clone with BM16 (BD Pharmingen™ from BD Biosciences, a division of Becton, Dickinson and Company), which is a rat monoclonal antibody to human CRTH2. The cells were maintained as monolayer cultures in Ham's F-12 medium containing 10% fetal bovine serum, 100 units/mL penicillin, […] streptomycin, 2 mM glutamine, 0.5 mg/mL G418 (geneticin) for CRTH2, and 0.2 mg/mL hygromycin-B (for G-alpha 16). For whole cell receptor binding assay, the monolayer cells were rinsed once with PBS (phosphate buffered saline), dissociated using diammonium ethylenediaminetetraacetate (Versene™ EDTA from the Dow Chemical Company), and suspended in PBS containing 10 mM MgCl2 and 0.06% BSA (bovine serum albumin) at 1.5×10^6 cells/mL.
# The binding reactions (0.2 mL) were performed in 96-well plates at room temperature in PBS containing 1.5×10^5 cells, 10 mM MgCl2, 0.06% BSA, 20 nM [^3H]ramatroban, and test compound at various concentrations. After 1 hour of binding reactions, the cells were harvested on GF™/B filter microplates (microtiter plates with embedded glass fiber from PerkinElmer, Inc.) and washed 5 times with PBS using a Filtermate™ Harvester (a cell harvester that harvests and washes cells from microplates from PerkinElmer, Inc.). The radioactivities bound to the cells were determined using a microplate scintillation counter (TopCount® NXT, from PerkinElmer, Inc.) after adding 50 μL of Microscint™ 20 scintillation fluid (from PerkinElmer, Inc.) to each well of the filter plates. The radioactivity from non-specific binding was determined by replacing compound with 10 μM of 15(R)-15-methyl PGD2 (from Cayman Chemical Company) in the reaction mixtures. The radioactivity bound to the cells in the absence of compound (total binding) was determined by replacing compound with 0.25% of DMSO (dimethyl sulfoxide) in the reaction mixture. Specific binding data were obtained by subtracting the radioactivity of non-specific binding from each binding data.
# The IC50 value is defined as the concentration of the tested compound that is required for 50% inhibition of total specific binding. In order to calculate the IC50 value, the percent inhibition data were determined for 7 concentrations for each compound. The percent inhibition for a compound at each concentration was calculated according to the following formula, [1-(specific binding in the presence of compound)/(total specific binding)]×100. The IC50 value was then obtained by fitting the percent inhibition data to a sigmoidal dose-response (4 parameter logistic) model in the XLfit® software Excel add-in program [from ID Business Solutions Ltd., model 205, where F(x)=(A+(B−A)/(1+((C/x)^D)))].
row,SMILES,IC50 [nM]
1,"O=C(O)COc1cc(F)cc2c1CCCC2NS(=O)(=O)c1cc(Br)cc(C(F)(F)F)c1 (centres unmarked) [Example 1-28, [5-(3-Bromo-5-trifluoromethyl-benzenesulfonyl-amino)-3-fluoro-5,6,7,8-tetrahydro-naphthalen-1-yloxy]-acetic acid]",4.2
2,"O=C(O)COc1c(F)c(F)cc2c1CCCC2NS(=O)(=O)c1cc(Br)cc(C(F)(F)F)c1 (centres unmarked) [Example 1-29, [5-(3-Bromo-5-trifluoromethyl-benzenesulfonyl-amino)-2,3-difluoro-5,6,7,8-tetrahydro-naphthalen-1-yloxy]-acetic acid]",18.2
3,"O=C(O)COc1c(F)c(F)cc2c1CCCC2NS(=O)(=O)c1ccc(Cl)cc1Cl (centres unmarked) [Example 1-30, [5-(2,4-Dichloro-benzenesulfonyl-amino)-2,3-difluoro-5,6,7,8-tetrahydro-naphthalen-1-yloxy]-acetic acid]",46.1
4,"O=C(O)COc1cc(F)cc2c1CCCC2NS(=O)(=O)c1ccc(Cl)cc1Cl (centres unmarked) [Example 1-31, [5-(2,4-Dichloro-benzenesulfonyl-amino)-3-fluoro-5,6,7,8-tetrahydro-naphthalen-1-yloxy]-acetic acid]",154
5,"O=C(O)COc1c(F)c(F)cc2c1CCCC2NS(=O)(=O)c1cc(Cl)ccc1Cl (centres unmarked) [Example 1-32, [5-(2,5-Dichloro-benzenesulfonyl-amino)-2,3-difluoro-5,6,7,8-tetrahydro-naphthalen-1-yloxy]-acetic acid]",269
6,"O=C(O)COc1cc(F)cc2c1CCCC2NS(=O)(=O)c1cc(Cl)ccc1Cl (centres unmarked) [Example 1-33, [5-(2,5-Dichloro-benzenesulfonyl-amino)-3-fluoro-5,6,7,8-tetrahydro-naphthalen-1-yloxy]-acetic acid]",81
7,"CC(C)c1cccc(-c2ccc(S(=O)(=O)NC3CCCc4c3cc(F)c(F)c4OCC(=O)O)nc2)c1 (centres unmarked) [Example 1-34, {2,3-Difluoro-5-[5-(3-isopropyl-phenyl)-pyridine-2-sulfonylamino]-5,6,7,8-tetrahydro-naphthalen-1-yloxy}-acetic acid]",8.6
8,"CC(C)c1cccc(-c2ccc(S(=O)(=O)NC3CCCc4c(OCC(=O)O)cc(F)cc43)nc2)c1 (centres unmarked) [Example 1-35, {3-Fluoro-5-[5-(3-isopropyl-phenyl)-pyridine-2-sulfonylamino]-5,6,7,8-tetrahydro-naphthalen-1-yloxy}-acetic acid]",7
9,"CC(C)c1cccc(-c2ccc(S(=O)(=O)NC3CCCc4c(OCC(=O)O)cc(Cl)cc43)nc2)c1 (centres unmarked) [Example 1-36, {3-Chloro-5-[5-(3-isopropyl-phenyl)-pyridine-2-sulfonylamino]-5,6,7,8-tetrahydro-naphthalen-1-yloxy}-acetic acid]",4.5
10,"O=C(O)COc1cc(Br)cc2c1CCC[C@H]2NS(=O)(=O)c1cc(Br)cc(C(F)(F)F)c1 [Example 1-37, [(R)-3-Bromo-5-(3-bromo-5-trifluoromethyl-benzenesulfonyl-amino)-5,6,7,8-tetrahydro-naphthalen-1-yloxy]-acetic acid]",2.8
11,"O=C(O)COc1c(F)c(Cl)cc2c1CCC[C@H]2NS(=O)(=O)c1cc(F)cc(C(F)(F)F)c1 [Example 1-38, [(R)-3-Chloro-2-fluoro-5-(3-fluoro-5-trifluoromethyl-benzenesulfonyl-amino)-5,6,7,8-tetrahydro-naphthalen-1-yloxy]-acetic acid]",3.4
12,"O=C(O)COc1c(F)c(Cl)cc2c1CCC[C@H]2NS(=O)(=O)c1cc(Br)cc(C(F)(F)F)c1 [Example 1-39, [(R)-5-(3-Bromo-5-trifluoromethyl-benzenesulfonyl-amino)-3-chloro-2-fluoro-5,6,7,8-tetrahydro-naphthalen-1-yloxy]-acetic acid]",2.6
13,"O=C(O)COc1c(F)c(Cl)cc2c1CCC[C@H]2NS(=O)(=O)c1ccc(Cl)cc1Cl [Example 1-40, [(R)-3-Chloro-5-(2,4-dichloro-benzenesulfonyl-amino)-2-fluoro-5,6,7,8-tetrahydro-naphthalen-1-yloxy]-acetic acid]",6.3
14,"O=C(O)COc1cc(Cl)cc2c1CCC[C@H]2NS(=O)(=O)c1cc(F)cc(C(F)(F)F)c1 [Example 1-41, [(R)-3-Chloro-5-(3-fluoro-5-trifluoromethyl-benzenesulfonyl-amino)-5,6,7,8-tetrahydro-naphthalen-1-yloxy]-acetic acid]",3.4
15,"O=C(O)COc1cc(Cl)cc2c1CCC[C@H]2NS(=O)(=O)c1cc(Br)cc(C(F)(F)F)c1 [Example 1-42, [(R)-5-(3-Bromo-5-trifluoromethyl-benzenesulfonyl-amino)-3-chloro-5,6,7,8-tetrahydro-naphthalen-1-yloxy]-acetic acid]",3.2
16,"O=C(O)COc1cc(Cl)cc2c1CCC[C@H]2NS(=O)(=O)c1cc(Cl)ccc1Cl [Example 1-43, [(R)-3-Chloro-5-(2,5-dichloro-benzenesulfonyl-amino)-5,6,7,8-tetrahydro-naphthalen-1-yloxy]-acetic acid]",10.9
17,"CC(C)c1cccc(-c2ccc(S(=O)(=O)NC3CCCc4c3cc(Cl)c(F)c4OCC(=O)O)nc2)c1 (centres unmarked) [Example 1-44, {3-Chloro-2-fluoro-5-[5-(3-isopropyl-phenyl)-pyridine-2-sulfonylamino]-5,6,7,8-tetrahydro-naphthalen-1-yloxy}-acetic acid]",16.4
18,"CN(C1CCCc2c1cc(Cl)c(F)c2OCC(=O)O)S(=O)(=O)c1cc(C(F)(F)F)cc(C(F)(F)F)c1 (centres unmarked) [Example 2-1, {5-[(3,5-Bis-trifluoromethyl-benzenesulfonyl)-methyl-amino]-3-chloro-2-fluoro-5,6,7,8-tetrahydro-naphthalen-1-yloxy}-acetic acid]",8
19,"CN(C1CCCc2c(OCC(=O)O)cc(Cl)cc21)S(=O)(=O)c1cc(C(F)(F)F)cc(C(F)(F)F)c1 (centres unmarked) [Example 2-4, {5-[(3,5-Bis-trifluoromethyl-benzenesulfonyl)-methyl-amino]-3-chloro-5,6,7,8-tetrahydro-naphthalen-1-yloxy}-acetic acid]",8.3
20,"CN([C@@H]1CCCc2c(OCC(=O)O)cc(Cl)cc21)S(=O)(=O)c1cc(C(F)(F)F)cc(C(F)(F)F)c1 [Example 2-5, {(R)-5-[(3,5-Bis-trifluoromethyl-benzenesulfonyl)-methyl-amino]-3-chloro-5,6,7,8-tetrahydro-naphthalen-1-yloxy}-acetic acid]",5.9
21,"CN(C1CCCc2c(OCC(=O)O)cc(Cl)cc21)S(=O)(=O)c1ccc(Cl)cc1Cl (centres unmarked) [Example 2-6, {3-Chloro-5-[(2,4-dichloro-benzenesulfonyl)-methyl-amino]-5,6,7,8-tetrahydro-naphthalen-1-yloxy}-acetic acid]",92.9
22,"CN(C1CCCc2c1cc(Cl)c(Cl)c2OCC(=O)O)S(=O)(=O)c1cc(C(F)(F)F)cc(C(F)(F)F)c1 (centres unmarked) [Example 2-7, {5-[(3,5-Bis-trifluoromethyl-benzenesulfonyl)-methyl-amino]-2,3-dichloro-5,6,7,8-tetrahydro-naphthalen-1-yloxy}-acetic acid]",333
23,"Cc1c(Cl)cc2c(c1OCC(=O)O)CCCC2N(C)S(=O)(=O)c1cc(C(F)(F)F)cc(C(F)(F)F)c1 (centres unmarked) [Example 2-8, {5-[(3,5-Bis-trifluoromethyl-benzenesulfonyl)-methyl-amino]-3-chloro-2-methyl-5,6,7,8-tetrahydro-naphthalen-1-yloxy}-acetic acid]",638
